Test results as given in US12583866B2, “Pyrido[2,3-b][1,4]oxazines or tetrahydropyrido[2,3-b][1,4]oxazepines as IAP antagonists” (BEIGENE, LTD., priority 2020, dated 2026).

How the values were obtained:
[1] = molecular target: T1, recombinant human XIAP-BIR3 protein (Homo sapiens, UniProt P98170); assay: Recombinant human XIAP-BIR3 biochemical assay (HTRF, peptide displacement); details: 3.7 nM XIAP-BIR3, 7.6 nM AbuRPF-K(5-Fam)-NH2 peptide, read-out: Protein binding IC50 (nM) XIAP
T1 construct: recombinant human XIAP-BIR3 protein; purchased Reaction biology APT-11-374
T1 sequence (P98170 241-356 limits assumed): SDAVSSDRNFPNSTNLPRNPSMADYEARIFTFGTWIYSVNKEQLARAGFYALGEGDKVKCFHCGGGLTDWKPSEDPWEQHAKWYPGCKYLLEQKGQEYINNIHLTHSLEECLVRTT
Method: III. Recombinant Human XIAP-BIR3 Biochemical Assay
(§1) Compounds disclosed herein were tested for blocking of recombinant human XIAP-BIR3 protein (Cat: APT-11-374, Reaction biology) with its peptide in an assay based on Homogeneous Time Resolved Fluorescence. 3.7 nM recombinant human XIAP-BIR3 protein was pre-incubated with a serial dilution of compounds disclosed herein (maximum concentration is 10 uM, 4-fold serially diluted, 10 points) at room temperature for 1 hour in an assay buffer containing 20 mM HEPES, pH 7.5, 50 mM NaCl, 0.005% Tween-20, 1 mM DTT. Then 7.6 nM AbuRPF-K(5-Fam)-NH2 (Cat: 709702, GL Biochem) was added to plate incubated at room temperature for 1 hour. Mab Anti-6His Tb cryptate Gold (Cat: 61HI2TLB, Cisbio Bioassays) was added to plate and further incubated at room temperature for 1 hour. The HTRF signals (ex337 nm, em520 nm/490 nm) were read on BMG PHERAstar FS instrument. The inhibition percentage of XIAP-BIR3 interaction with its peptide in presence of increasing concentrations of compounds was calculated based on the ratio of fluorescence at 520 nm to that at 490 nm. The IC50 for each compound was derived from fitting the data to the four-parameter logistic equation by Dotmatics and summarized in table 1.

[2] = molecular target: T2, recombinant human cIAP1-BIR3 protein (Homo sapiens, UniProt Q13490); assay: Recombinant human c-IAP1-BIR3 biochemical assay (HTRF, peptide displacement); details: 1.2 nM cIAP1-BIR3, 3 nM AbuRPF-K(5-Fam)-NH2 peptide, read-out: Protein binding IC50 (nM) c-IAP1
T2 construct: recombinant human cIAP1-BIR3 protein; purchased Reaction biology APT-11-370
T2 sequence (Q13490 253-363 limits assumed): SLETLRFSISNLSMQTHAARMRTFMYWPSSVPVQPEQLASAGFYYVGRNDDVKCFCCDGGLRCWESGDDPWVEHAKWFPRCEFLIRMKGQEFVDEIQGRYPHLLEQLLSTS
Method: I. Recombinant human c-IAP1-BIR3 biochemical assay
as §1, with “cIAP1-BIR3” for “XIAP-BIR3”, “APT-11-370,” for “APT-11-374,”, “1.2” for “3.7”, “3” for “7.6”, “AbuRPF-K (5-Fam)-NH2” for “AbuRPF-K(5-Fam)-NH2”

[3] = molecular target: T3, recombinant human cIAP2-BIR3 protein (Homo sapiens, UniProt Q13489); assay: Recombinant human c-IAP2-BIR3 biochemical assay (HTRF, peptide displacement); details: 3.7 nM cIAP2-BIR3, 3.7 nM AbuRPF-K(5-Fam)-NH2 peptide, read-out: Protein binding IC50 (nM) c-IAP2
T3 construct: recombinant human cIAP2-BIR3 protein; purchased Reaction biology APT-11-372
T3 sequence (Q13489 238-349 limits assumed): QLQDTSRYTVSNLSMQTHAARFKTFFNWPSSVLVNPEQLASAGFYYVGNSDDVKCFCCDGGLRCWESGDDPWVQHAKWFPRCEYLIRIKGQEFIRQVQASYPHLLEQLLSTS
Method: II. Recombinant Human c-IAP2-BIR3 Biochemical Assay
as §1, with “cIAP2-BIR3” for “XIAP-BIR3”, “APT-11-372,” for “APT-11-374,”, “3.7” for “7.6”

| IC50 [1] [nM] | IC50 [2] [nM] | IC50 [3] [nM] | SMILES |
| --- | --- | --- | --- |
| 10.3 | 0.24 | 0.45 | C[C@@H]1CN(CC(=O)N2c3cc(Cc4ccc(F)cc4)c(NCCO)nc3OC[C@@H]2C)[C@@H](CN2[C@H](C)COC[C@H]2C)CN1 [Compound 109] |
| 10 | 0.54 | 0.73 | C[C@@H]1CN(CC(=O)N2c3cc(Cc4ccc(F)cc4)c(C(N)=O)nc3OC[C@@H]2C)[C@@H](CN2CCOC[C@H]2C(F)F)CN1 [Example 82] |
| 13 | 0.55 | 1.1 | COC[C@@H]1COCCN1C[C@H]1CN[C@H](C)CN1CC(=O)N1c2cc(Cc3ccc(F)cc3)c(CO)nc2OC[C@@H]1C [Compound 52, 1-((S)-7-(4-fluorobenzyl)-6-(hydroxymethyl)-2-methyl-2,3-dihydro-1H-pyrido[2,3-b][1,4]oxazin-1-yl)-2-((2R,5R)-2-(((R)-3-(methoxymethyl)morpholino)methyl)-5-methylpiperazin-1-yl)ethan-1-one] |
| 16.9 | 0.33 | 0.94 | C[C@@H]1CN(CC(=O)N2c3cc(Cc4ccc(F)cc4)c(N4CCOCC4)nc3OC[C@@H]2C)[C@@H](CN2[C@H](C)COC[C@H]2C)CN1 [Compound 106, 2-((2R,5R)-2-(((3R,5R)-3,5-dimethylmorpholino)methyl)-5-methylpiperazin-1-yl)-1-((S)-7-(4-fluorobenzyl)-2-methyl-6-morpholino-2,3-dihydro-1H-pyrido[2,3-b][1,4]oxazin-1-yl)ethan-1-one] |
| 41 | 2.6 | 5.75 | C[C@@H]1CN(CC(=O)N2CCOc3nc(C4(O)CC4)c(Cc4ccc(F)cc4)cc32)[C@@H](CN2CCOC[C@H]2C)CN1 [Compound 21, 1-(7-(4-fluorobenzyl)-6-(1-hydroxycyclopropyl)-2,3-dihydro-1H-pyrido[2,3-b][1,4]oxazin-1-yl)-2-((2R,5R)-5-methyl-2-(((R)-3-methylmorpholino)methyl)piperazin-1-yl)ethan-1-one] |
| 4.3 | 0.18 | 0.29 | C[C@@H]1CN(CC(=O)N2c3cc(Cc4ccc(F)cc4)c(C(=O)NCCO)nc3OC[C@@H]2C)[C@@H](CN2[C@H](C)COC[C@H]2C)CN1 [Example 73, (S)-1-(2-((2R,5R)-2-(((3R,5R)-3,5-dimethylmorpholino)methyl)-5-methylpiperazin-1-yl)acetyl)-7-(4-fluorobenzyl)-N-(2-hydroxyethyl)-2-methyl-2,3-dihydro-1H-pyrido[2,3-b][1,4]oxazine-6-carboxamide] |
| 3.3 | 0.16 | 0.28 | C[C@@H]1CN(CC(=O)N2c3cc(Cc4ccc(F)cc4)c(C(=O)NC[C@H]4CCCO4)nc3OC[C@@H]2C)[C@@H](CN2[C@H](C)COC[C@H]2C)CN1 [Compound 94, (S)-1-(2-((2R,5R)-2-(((3R,5R)-3,5-dimethylmorpholino)methyl)-5-methylpiperazin-1-yl)acetyl)-7-(4-fluorobenzyl)-2-methyl-N—(((R)-tetrahydrofuran-2-yl)methyl)-2,3-dihydro-1H-pyrido[2,3-b][1,4]oxazine-6-carboxamide] |
| 8.4 | 0.34 | 0.85 | C[C@@H]1CN(CC(=O)N2CCOc3ncc(Cc4ccc(F)cc4)cc32)[C@@H](CN2[C@H](C)COC[C@H]2C)CN1 [Compound 16, 2-((2R,5R)-2-(((3R,5R)-3,5-dimethylmorpholino)methyl)-5-methylpiperazin-1-yl)-1-(7-(4-fluorobenzyl)-2,3-dihydro-1H-pyrido[2,3-b][1,4]oxazin-1-yl)ethan-1-one] |
| 8.5 | 0.34 | 0.65 | C[C@@H]1CN(CC(=O)N2c3cc(Cc4ccc(F)cc4)cnc3OC[C@@H]2c2ccccc2)[C@@H](CN2CCOC[C@H]2C)CN1 [Compound 45, 1-((S)-7-(4-fluorobenzyl)-2-phenyl-2,3-dihydro-1H-pyrido[2,3-b][1,4]oxazin-1-yl)-2-((2R,5R)-5-methyl-2-(((R)-3-methylmorpholino)methyl)piperazin-1-yl)ethan-1-one] |
| 34 | 1.3 | 1.9 | C[C@@H]1CN(CC(=O)N2c3cc(Cc4ccc(F)cc4)c(CO)nc3OC[C@@H]2C)[C@@H](CN2CCOC[C@H]2C(F)F)CN1 [Compound 55] |
| 196 | 3.4 | 6.9 | C[C@@H]1CN(CC(=O)N2CCOc3ncc(Cc4ccc(F)cc4)cc32)[C@@H](CN2C(=O)OC[C@H]2C(F)F)CN1 [Compound 15, (S)-4-(difluoromethyl)-3-(((2R,5R)-1-(2-(7-(4-fluorobenzyl)-2,3-dihydro-1H-pyrido[2,3-b][1,4]oxazin-1-yl)-2-oxoethyl)-5-methylpiperazin-2-yl)methyl)oxazolidin-2-one] |
| > 1000 | > 1000 | > 1000 | C[C@@H]1CN(CC(=O)N2CCCOc3ncc(Cc4ccc(F)cc4)cc32)[C@@H](CN2CCOC[C@H]2C)CN1 [Compound 18, 1-(8-(4-fluorobenzyl)-3,4-dihydropyrido[2,3-b][1,4]oxazepin-1(2H)-yl)-2-((2R,5R)-5-methyl-2-(((R)-3-methylmorpholino)methyl)piperazin-1-yl)ethan-1-one] |
| 28 | 0.15 | 0.27 | CC(C)OC[C@H]1COc2ncc(Cc3ccc(F)cc3)cc2N1C(=O)CN1C[C@@H](C)NC[C@@H]1CN1[C@H](C)COC[C@H]1C [Compound 39, 2-((2R,5R)-2-(((3R,5R)-3,5-dimethylmorpholino)methyl)-5-methylpiperazin-1-yl)-1-((S)-7-(4-fluorobenzyl)-2-(isopropoxymethyl)-2,3-dihydro-1H-pyrido[2,3-b][1,4]oxazin-1-yl)ethan-1-one] |
| 7.8 | 0.26 | 0.67 | CC(C)OC[C@@H]1COCCN1C[C@H]1CN[C@H](C)CN1CC(=O)N1c2cc(Cc3ccc(F)cc3)c(CO)nc2OC[C@@H]1C [Compound 59] |
| 264 | 14 | 52 | CC1CN(C(=O)CN2C[C@@H](C)NC[C@@H]2CN2CCOC[C@H]2C)c2cc(Cc3ccc(F)cc3)cnc2O1 (stereo partly drawn) [Compound 10, 1-(7-(4-fluorobenzyl)-3-methyl-2,3-dihydro-1H-pyrido[2,3-b][1,4]oxazin-1-yl)-2-((2R,5R)-5-methyl-2-(((R)-3-methylmorpholino)methyl)piperazin-1-yl)ethan-1-one] |
| 99 | 1.3 | 6.8 | C[C@@H]1CN(CC(=O)N2CCOc3nc(C(F)(F)F)c(Cc4ccc(F)cc4)cc32)[C@@H](CN2CCOC[C@H]2C)CN1 [Compound 7, 1-(7-(4-fluorobenzyl)-6-(trifluoromethyl)-2,3-dihydro-1H-pyrido[2,3-b][1,4]oxazin-1-yl)-2-((2R,5R)-5-methyl-2-(((R)-3-methylmorpholino)methyl)piperazin-1-yl)ethan-1-one] |
